US20230200362A1, “MODEL ORGANISMS HUMANIZED FOR DRUG DISCOVERY AND SCREENING” (NemaMetrix, Inc, priority 2019, published 2023)
Where two headings read alike, the source gives them in different places. Values belong to the compound of their own block, whether it stands above or below them.

Columns and labels:
[1] = mouse model; combination with cannabidiol; cited from earlier work
[2] = system: pharynx::SLC6A4; assay: ScreenChip pharyngeal pumping frequency in SLC6A4 transgenic C. elegans; type: in vivo; conditions: 10 mM serotonin, first-day adults, 20 minutes incubation; FIG. 2B
Source text: Provided herein are transgenic nematodes and methods of preparing same for expression, as well as methods for using the same drug discovery for human therapeutic targets, such as that illustrated in FIG. 1 and described in more detail herein, wherein the therapeutic target gene is first optimized for expression in a host nematode and then incorporated into the genome of the nematode. Human Solute Carrier Family 6 Member 4 (SLC6A4) is known to transport serotonin out of the synaptic space, thus terminating the action of serotonin. […] Inhibitors of SLC6A4, selective serotonin reuptake inhibitors (SSRls), are commonly used to treat major depressive disorder and anxiety but are also known to cause many unpleasant side-effects. New SSRls can be discovered using the SLC6A4 overexpressing C. elegans transgenic nematodes described in this illustrative example. As shown below, C. elegans transgenic animals overexpressing human SLC6A4 in the pharyngeal muscle show a decrease in pumping frequency when stimulated to pump by food (a mild stimulus) as compared to the wildtype. These animals can be screened to identify novel SSRls. […] Each EPG recording is two minutes in duration and the experiment is replicated in triplicate on different days. […]

[3] = system: STXBP1(R406H); conditions: strain containing the R406H variant exposed to trehalose; cited from earlier work
[4] = target: T1, DAF-12 (Caenorhabditis elegans, UniProt G5EFF5); assay: lin-42::GFP reporter agonist response; type: in vivo, C. elegans
T1 construct: endogenous in cells; host or cells: whole C. elegans animals carrying lin-42::GFP or mtl-1::GFP promoter-fusion reporters
T1 sequence (G5EFF5 1-753): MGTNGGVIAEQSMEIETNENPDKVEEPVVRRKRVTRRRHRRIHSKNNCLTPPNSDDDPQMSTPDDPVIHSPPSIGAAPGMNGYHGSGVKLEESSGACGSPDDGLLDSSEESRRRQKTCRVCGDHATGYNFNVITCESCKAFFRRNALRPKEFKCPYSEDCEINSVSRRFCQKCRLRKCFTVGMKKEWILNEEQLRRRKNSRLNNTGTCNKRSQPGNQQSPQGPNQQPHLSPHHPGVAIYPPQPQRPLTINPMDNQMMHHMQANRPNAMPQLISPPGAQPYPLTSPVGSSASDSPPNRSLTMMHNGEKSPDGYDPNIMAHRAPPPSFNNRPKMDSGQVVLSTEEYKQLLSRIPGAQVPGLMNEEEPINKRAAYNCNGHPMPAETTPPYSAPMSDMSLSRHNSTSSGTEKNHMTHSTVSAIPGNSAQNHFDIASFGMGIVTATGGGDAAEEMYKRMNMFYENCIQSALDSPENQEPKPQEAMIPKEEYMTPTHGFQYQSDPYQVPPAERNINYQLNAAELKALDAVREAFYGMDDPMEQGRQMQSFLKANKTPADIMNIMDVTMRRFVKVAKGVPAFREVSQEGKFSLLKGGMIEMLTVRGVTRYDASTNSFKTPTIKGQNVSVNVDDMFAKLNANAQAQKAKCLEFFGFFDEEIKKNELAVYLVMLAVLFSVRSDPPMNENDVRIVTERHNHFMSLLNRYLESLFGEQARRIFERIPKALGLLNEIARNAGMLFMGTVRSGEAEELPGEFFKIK
Source text: (§1) Chimeric proteins made with the daf-12 nuclear hormone receptor (NHR) can be used for discovery of agonist and antagonist of human NHRs and detect ligands of human NHRs. In C. elegans, the daf-12 protein activity is a key regulator of development. When daf-12 is activated by dafachronic acid under normal growth conditions, animals will proceed to their reproductive life stage. However, when animals face unfavorable conditions, dafachronic acid is not produced and the dauer program is activated leading animals into a stress-resistant arrested state. The unfavorable conditions can be mimicked by treatment with a DAF-12 antagonist, dafadine. Dafadine treatment overcomes the growth condition signal and animals enter the arrested state. Reporter lines can be used to monitor daf-12 chimera activity. In order to create reporter lines for agonist and antagonist discovery, the transcriptional response to treatment with dafachronic acid or dafadine was determined. Dauer animals were treated with 500 nM dafachronic acid and harvested for RNA preparation after four hours of exposure. RNA samples were processed and sent for RNA sequence analysis. […]
(§2) In this illustrative example, animals in the first larval stage were treated with 100uM dafadine for four hours and harvested for RNA preparation and analysis. Two reporter lines were identified by observation of fluorescence after drug treatment. […]

[5] = system: C. elegans; assay: phenotypic assay (% adult survival); type: in vivo
[6] = target: T1, DAF-12; assay: mtl-1::GFP reporter antagonist response; type: in vivo, C. elegans
Source text: as §1, §2

Compound: NC(=O)N1c2ccccc2C=Cc2ccccc21 [carbamazepine]
interaction with CBD [1]: antagonize

Compound: CC[C@@H](C(N)=O)N1CCCC1=O [levetiracetam]
interaction with CBD [1]: acts synergistically

Compound: NCCc1c[nH]c2ccc(O)cc12 [serotonin, 5-Hydroxytryptamine]
rate of pharyngeal pumping in SLC6A4 line [2]: restored

Compound: OC[C@H]1O[C@H](O[C@H]2O[C@H](CO)[C@@H](O)[C@H](O)[C@H]2O)[C@H](O)[C@@H](O)[C@@H]1O [trehalose]
levels of aldicarb-induced paralysis [3]: increase to wild-type levels

sensitivity of reporter versus phenotypic assay ([4]; lin-42::GFP reporter vs phenotype): at least 40 x
EC50 ([4]; titrated with dafachronic acid, FIG. 3D): ~0.00049 µM
Compound: dafachronic acid
EC50 ([5]; dafachronic acid, FIG. 3E, read-out: EC50, animal's phenotypic response): 0.017 µM

sensitivity of reporter versus phenotypic assay ([6]; mtl-1::GFP reporter vs phenotypic assay): 9 x
EC50 ([6]; titrated with dafadine, FIG. 3C): 5.2 µM
Compound: dafadine
EC50 ([5]; dafadine, read-out: EC50, phenotypic assay): 48 µM
